# Source: patent publication US20110028442A1, “DERIVATIVES OF 4-(2-AMINO-1-HYDROXYETHYL) PHENOL AS AGONISTS OF THE BETA2 ADRENERGIC RECEPTOR” (priority 2008, published 2011)
# What was measured:
# [1] = target: T1, human adrenergic β1 receptor (Homo sapiens, UniProt P08588); assay: Human adrenergic β1 receptor binding assay (3H-CGP12177, Sf9 membranes); conditions: membranes from Sf9 cells, 0.14 nM 3H-CGP12177, 60 minutes at room temperature
# T1 construct: purchased Perkin Elmer; host or cells: Sf9 cells
# T1 sequence (P08588 whole entry): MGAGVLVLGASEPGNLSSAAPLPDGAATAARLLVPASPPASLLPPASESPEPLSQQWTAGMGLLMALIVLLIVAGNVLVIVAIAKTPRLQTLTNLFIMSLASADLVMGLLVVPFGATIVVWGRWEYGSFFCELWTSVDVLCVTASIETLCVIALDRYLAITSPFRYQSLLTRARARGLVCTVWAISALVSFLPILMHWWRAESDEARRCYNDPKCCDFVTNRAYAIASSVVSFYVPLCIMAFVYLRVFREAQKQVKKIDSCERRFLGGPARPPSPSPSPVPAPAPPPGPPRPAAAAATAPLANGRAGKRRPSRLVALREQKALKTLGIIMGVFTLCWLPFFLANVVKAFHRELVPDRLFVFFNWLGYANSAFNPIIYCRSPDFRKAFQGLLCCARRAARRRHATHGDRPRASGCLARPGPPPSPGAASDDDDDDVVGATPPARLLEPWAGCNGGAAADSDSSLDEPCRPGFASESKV
# Procedure: (§1) Human Adrenergic β1 and β2 Receptor Binding Assays
# (§2) The study of binding to human adrenergic β1 and β2 receptors was performed using commercial membranes prepared from Sf9 cells where they are overexpressed (Perkin Elmer).
# (§3) The membrane suspensions (16 μg/well for β1 and 5 μg/well for β2) in assay buffer, 75 mM Tris/HCl with 12.5 mM MgCl2 and 2 mM EDTA pH=7.4, were incubated with 0.14 nM 3H-CGP12177 (Amersham) and different concentrations of the test compounds, in a final volume of 250 μl, in GFC Multiscreen 96 well plates (Millipore) pretreated with +0.3% PEI. Non specific binding was measured in the presence of 1 μM propanolol. Incubation was for 60 minutes at room temperature and with gentle shaking. The binding reactions were terminated by filtration and washing with 2.5 volumes of Tris/HCl 50 mM pH=7.4. The affinity of each test compound to the receptor was determined by using at least six different concentrations ran in duplicate. IC50 values were obtained by non-linear regression using SAS.
# [2] = target: T2, human adrenergic β2 receptor (Homo sapiens, UniProt P07550); assay: Human adrenergic β2 receptor binding assay (3H-CGP12177, Sf9 membranes); conditions: for IC50: membranes from Sf9 cells, 0.14 nM 3H-CGP12177, 60 minutes at room temperature; for β1/β2 ratio: ratio of human β1 IC50 to human β2 IC50
# T2 construct: purchased Perkin Elmer; host or cells: Sf9 cells
# T2 sequence (P07550 whole entry): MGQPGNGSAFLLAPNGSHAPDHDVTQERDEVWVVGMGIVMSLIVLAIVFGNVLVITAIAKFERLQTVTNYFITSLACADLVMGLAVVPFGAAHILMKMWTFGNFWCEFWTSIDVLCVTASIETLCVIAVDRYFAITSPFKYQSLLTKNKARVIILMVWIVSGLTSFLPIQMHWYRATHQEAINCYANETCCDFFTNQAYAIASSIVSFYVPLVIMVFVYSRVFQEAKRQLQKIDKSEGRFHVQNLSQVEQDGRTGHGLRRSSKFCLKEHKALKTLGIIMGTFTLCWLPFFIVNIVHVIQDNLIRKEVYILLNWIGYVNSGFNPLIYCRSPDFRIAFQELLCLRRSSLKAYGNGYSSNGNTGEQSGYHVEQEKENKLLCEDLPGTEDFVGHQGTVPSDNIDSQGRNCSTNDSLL
# Procedure: as §1, §2, §3
IC50 [1],IC50 [2],β1/β2 ratio [2],SMILES
9 nM,6.2 nM,1.4,"O=C(NCCc1ccccc1)Nc1cccc(CCNCC(O)c2ccc(O)c3[nH]c(=O)ccc23)c1 [Example 11, N-[3-(2-{[(2R,S)-2-hydroxy-2-(8-hydroxy-2-oxo-1,2-dihydroquinolin-5-yl)ethyl]amino}ethyl)phenyl]-N′-(2-phenylethyl)urea]"
19.5 nM,2.6 nM,7.4,"O=C(NCCCc1ccccc1)Nc1cccc(CCNCC(O)c2ccc(O)c3[nH]c(=O)ccc23)c1 [Example 12, N-[3-(2-{[(2R,S)-2-hydroxy-2-(8-hydroxy-2-oxo-1,2-dihydroquinolin-5-yl)ethyl]amino}ethyl)phenyl]-N′-(3-phenylpropyl)urea]"
78 nM,6 nM,13,"O=C(NCc1c(Cl)cccc1Cl)Nc1cccc(CCNCC(O)c2ccc(O)c3[nH]c(=O)ccc23)c1 [Example 17, N-(2,6-dichlorobenzyl)-N′-[3-(2-{[(2R,S)-2-hydroxy-2-(8-hydroxy-2-oxo-1,2-dihydroquinolin-5-yl)ethyl]amino}ethyl)phenyl]urea]"
25.5 nM,2.8 nM,9.1,"C[C@@H](Cc1cccc(NC(=O)Nc2ccccc2-c2ccccc2)c1)NC[C@H](O)c1ccc(O)c2[nH]c(=O)ccc12 [Example 32, N-biphenyl-2-yl-N′-[3-(2-{[(2R)-2-hydroxy-2-(8-hydroxy-2-oxo-1,2-dihydroquinolin-5-yl)ethyl]amino}propyl)phenyl]urea, b isomer]"
38.5 nM,10 nM,3.8,"O=C(Nc1cccc(CCNCC(O)c2ccc(O)c3[nH]c(=O)ccc23)c1)NC12CC3CC(CC(C3)C1)C2 [Example 16, N-1-adamantyl-N′-[3-(2-{[(2R,S)-2-hydroxy-2-(8-hydroxy-2-oxo-1,2-dihydroquinolin-5-yl)ethyl]amino}ethyl)phenyl]urea]"
49 nM,4.4 nM,11.0,"O=C(NCc1ccccc1)Nc1cccc(CCNCC(O)c2ccc(O)c3[nH]c(=O)ccc23)c1 [Example 8, N-benzyl-N′-[3-(2-{[(2R,S)-2-hydroxy-2-(8-hydroxy-2-oxo-1,2-dihydroquinolin-5-yl)ethyl]amino}ethyl)phenyl]urea]"
13 nM,2.9 nM,4.5,"O=C(NCCCCc1ccccc1)Nc1cccc(CCNCC(O)c2ccc(O)c3[nH]c(=O)ccc23)c1 [Example 20, N-[3-(2-{[(2R,S)-2-hydroxy-2-(8-hydroxy-2-oxo-1,2-dihydroquinolin-5-yl)ethyl]amino}ethyl)phenyl]-N′-(4-phenylbutyl)urea]"
4.4 nM,10.5 nM,0.4,"O=C(Nc1ccccc1)Nc1cccc(CCNCC(O)c2ccc(O)c3[nH]c(=O)ccc23)c1 [Example 15, N-[3-(2-{[(2R,S)-2-hydroxy-2-(8-hydroxy-2-oxo-1,2-dihydroquinolin-5-yl)ethyl]amino}ethyl)phenyl]-N′-phenylurea]"
24.5 nM,5.3 nM,4.6,"O=C(Nc1cccc(CCNC[C@H](O)c2ccc(O)c3[nH]c(=O)ccc23)c1)NC(c1ccccc1)c1ccccc1 [Example 26, N-(diphenylmethyl)-N′-[3-(2-{[(2R)-2-hydroxy-2-(8-hydroxy-2-oxo-1,2-dihydroquinolin-5-yl)ethyl]amino}ethyl)phenyl]urea]"
45.5 nM,7.6 nM,6.0,"CC(C)(C)c1ccc(CNC(=O)Nc2cccc(CCNC[C@H](O)c3ccc(O)c4[nH]c(=O)ccc34)c2)cc1 (racemic) [Example 33, N-(4-tert-butylbenzyl)-N′-[3-(2-{[(2R,S)-2-hydroxy-2-(8-hydroxy-2-oxo-1,2-dihydroquinolin-5-yl)ethyl]amino}ethyl)phenyl]urea]"
44.5 nM,5.6 nM,7.9,"COc1ccccc1CNC(=O)Nc1cccc(CCNCC(O)c2ccc(O)c3[nH]c(=O)ccc23)c1 [Example 9, N-[3-(2-{[(2R,S)-2-hydroxy-2-(8-hydroxy-2-oxo-1,2-dihydroquinolin-5-yl)ethyl]amino}ethyl)phenyl]-N′-(2-methoxybenzyl)urea]"
24 nM,9.7 nM,2.5,"O=C(Nc1cccc(CCNC[C@H](O)c2ccc(O)c3[nH]c(=O)ccc23)c1)Nc1ccccc1-c1ccccc1 [Example 27, N-biphenyl-2-yl-N′-[3-(2-{[(2R)-2-hydroxy-2-(8-hydroxy-2-oxo-1,2-dihydroquinolin-5-yl)ethyl]amino}ethyl)phenyl]urea]"
54 nM,4.6 nM,11.7,"COc1ccccc1CNC(=O)Nc1cccc(CC(C)NCC(O)c2ccc(O)c3[nH]c(=O)ccc23)c1 [Example 6, N-[3-(2R,S)-2-{[(2R,S)-2-hydroxy-2-(8-hydroxy-2-oxo-1,2-dihydroquinolin-5-yl)ethyl]amino}propyl)phenyl]-N′-(2-methoxybenzyl)urea]"
36 nM,5.9 nM,,"O=C(NCC12CC3CC(CC(C3)C1)C2)Nc1cccc(CCNCC(O)c2ccc(O)c3[nH]c(=O)ccc23)c1 [Example 23, N-(1-adamantylmethyl)-N′-[3-(2-{[(2R,S)-2-hydroxy-2-(8-hydroxy-2-oxo-1,2-dihydroquinolin-5-yl)ethyl]amino}ethyl)phenyl]urea]"
98 nM,12 nM,8.2,"CC(Cc1cccc(NC(=O)NCc2ccccc2)c1)NCC(O)c1ccc(O)c2[nH]c(=O)ccc12 [Example 3, N-benzyl-N′-[3-((2R,S)-2-{[(2R,S)-2-hydroxy-2-(8-hydroxy-2-oxo-1,2-dihydroquinolin-5-yl)ethyl]amino}propyl)phenyl]urea]"
19.5 nM,4.5 nM,4.3,"O=C(Nc1ccc(CCNC[C@H](O)c2ccc(O)c3[nH]c(=O)ccc23)cc1)NC(c1ccccc1)c1ccccc1 [Example 36, N-(diphenylmethyl)-N′-[4-(2-{[(2R)-2-hydroxy-2-(8-hydroxy-2-oxo-1,2-dihydroquinolin-5-yl)ethyl]amino}ethyl)phenyl]urea]"
